One experiment deals with L1210. Put plainly: Cytotoxicity against mouse L1210 cells. Type of experiment: functional, cell-based.
Experiment [1] has as its system Nucleic Acid. Put plainly: Alkylation of cell free 32p end labeled double stranded w794 DNA at 10 uM after 48 hrs by PAGE and autoradiography. Type of experiment: nucleic-acid assay.
The test system of experiment [2] is Nucleic Acid. Put plainly: Alkylation of cell free 32p end labeled double stranded w794 DNA at 100 uM after 48 hrs by PAGE and autoradiography. It counts as nucleic-acid assay.

Activity calls are given as the source filed them. The rule behind the calls is not given here.

For `COC(=O)c1nc2c(O)cc3c(c2o1)C(CCl)CN3C(=O)OC(C)(C)C` (stereo unspecified), half-maximal inhibition with L1210 (IC50) required 550 nM.

As for `COC(=O)c1cc2c([nH]1)C(=O)C=C1N(C(=O)c3cc4cc(OC)c(OC)c(OC)c4[nH]3)C[C@H]3C[C@]123`, the outcome in the experiment with Nucleic Acid [1] was Active. Further, in the experiment with Nucleic Acid [2], the outcome was inactive.

For the compound `COC(=O)c1nc2c(O)cc3c(c2o1)C(CCl)CN3C(=O)c1cc2cc(OC)c(OC)c(OC)c2[nH]1` (racemic), in the experiment with Nucleic Acid [1], the outcome was Active. Besides, in the experiment on Nucleic Acid [2], the outcome was inactive. For the same compound, the half-maximal inhibitory concentration (IC50) in the experiment with L1210 was determined as 5.4 nM.

The values are drawn from ChEMBL document CHEMBL1155407, “Synthesis and evaluation of duocarmycin SA analogs incorporating the methyl 1,2,8,8a-tetrahydrocyclopropa[c]oxazolo[2,3-e]indol-4-one-6-carboxylate (COI) alkylation subunit” (Bioorg Med Chem Lett, 2010).
